# Experimental data taken from ChEMBL document CHEMBL3045153, “Screening of flavonoids for antitubercular activity and their structureactivity relationships” (2013).
# The source made the active and inactive calls. No cut-off for these calls is given here.
# Tested on: Mycobacterium tuberculosis
# Experiment: Antitubercular activity against Mycobacterium tuberculosis H37Rv ATCC 27294 measured every 24 hr by BACTEC 460 radiometric assay
# Format: functional
# Details: H37Rv ATCC 27294, 24 h
row,SMILES,MIC [µg/mL]
1,O=c1cc(-c2ccc(O)c(O)c2)oc2cc(O)cc(O)c12 [LUTEOLIN],25
2,COc1c(O)cc2oc(-c3ccc(O)cc3)cc(=O)c2c1O [HISPIDULIN],100
3,CO[C@H]1/C=C/O[C@@]2(C)Oc3c(C)c(O)c4c(O)c(c(/C=N/N5CCN(C)CC5)c(O)c4c3C2=O)NC(=O)/C(C)=C\C=C\[C@H](C)[C@H](O)[C@@H](C)[C@@H](O)[C@@H](C)[C@H](OC(C)=O)[C@@H]1C [RIFAMPIN],2
4,O=c1c(O)c(-c2cc(O)c(O)c(O)c2)oc2cc(O)cc(O)c12 [MYRICETIN],50
5,CN[C@@H]1[C@H](O[C@H]2[C@H](O[C@H]3[C@H](O)[C@@H](O)[C@H](N=C(N)N)[C@@H](O)[C@@H]3N=C(N)N)O[C@@H](C)[C@]2(O)C=O)O[C@@H](CO)[C@H](O)[C@H]1O [STREPTOMYCIN],2
6,O=c1cc(-c2ccccc2)oc2cc(O)c(O)c(O)c12 [BAICALEIN],50
7,O=c1c(O)c(-c2ccc(O)c(O)c2)oc2cc(O)cc(O)c12 [QUERCETIN],50

# Tested on: Mycobacterium tuberculosis
# Experiment: Antitubercular activity against Mycobacterium tuberculosis H37Rv ATCC 27294 at 100 ug/ml measured every 24 hr by BACTEC 460 radiometric assay
# Format: functional, organism-based
# Details: not given
row,SMILES,Activity
1,O=c1c(O)c(-c2ccccc2)oc2cc(O)cc(O)c12,inactive
2,COc1ccc(-c2oc3cc(OC)c(OC)c(O)c3c(=O)c2OC)cc1O,inactive
3,COc1ccc([C@@H]2CC(=O)c3c(O)cc(O[C@@H]4O[C@H](CO[C@@H]5O[C@@H](C)[C@H](O)[C@@H](O)[C@H]5O)[C@@H](O)[C@H](O)[C@H]4O)cc3O2)cc1O,inactive
4,O=c1cc(-c2ccc(O)cc2)oc2cc(OC3O[C@H](CO)[C@@H](O)[C@H](O)[C@H]3O)cc(O)c12 (some centres not stated),inactive
5,O=c1c(O)c(-c2ccc(O)cc2)oc2cc(O)cc(O)c12,inactive
6,C[C@@H]1O[C@@H](OC[C@H]2O[C@@H](Oc3c(-c4ccc(O)c(O)c4)oc4cc(O)cc(O)c4c3=O)[C@H](O)[C@@H](O)[C@@H]2O)[C@H](O)[C@H](O)[C@H]1O,inactive
7,C[C@H]1O[C@H](Oc2c(-c3ccc(O)cc3)oc3cc(O)cc(O)c3c2=O)[C@@H](O)[C@@H](O)[C@@H]1O,inactive
8,O=c1cc(-c2ccc(O)cc2)oc2cc(O)cc(O)c12,inactive
9,O=c1cc(-c2ccccc2)oc2cc(O)cc(O)c12,inactive
10,COc1c(O)cc2oc(-c3ccccc3)cc(=O)c2c1O,inactive
